Data from paper PMC10600247, “Impact of C- and N-terminal protection on the stability, metal chelation and antimicrobial properties of calcitermin” (Scientific Reports, 2023).
Several values for one entry are separate records, joined by “and”; a condition that tells them apart may be missing. Equal values may be shown once.

Assays:
C. albicans (ATCC 10231) = experiment: In vitro antifungal CFU assay; assay type: cell-based, Candida albicans; settings: pH 5.4
Method: (§1) All microbes were grown at 37 °C in Tryptic Soy Broth (TSB; Biolife, Milan, Italy) or Tryptic Soy Agar plates (TSA, Biolife, Milan, Italy). Peptides were tested at a final concentration C = 0.128, 0.064, 0.032 mg/mL, in the presence or absence of ZnCl2 or CuCl2, at a M:L molar ratio 0.9:1. Briefly, all the microbes were expanded in TSB at 37 °C under agitation for 12 h and then sub-cultured by 1:10 dilution in TSB under the same conditions until reaching OD600nm = 0.3–0.4, as measured by spectrophotometric reading using a GENESYS 10S UV–Vis spectrophotometer (Thermo Scientific, Milan, Italy), corresponding to 0.9–1.2 × 10^7 colony forming units (CFU) per mL, 1.5–2 × 10^8 CFU/mL and 2.4–3.2 × 10^8 CFU/mL, for C. albicans, S. aureus and E. coli respectively. The cultures were then centrifuged at 4500 rpm for 10 min in a SL 8 centrifuge (TX-150 Rotor) (Thermo Scientific, Milan, Italy), and the cellular pellets were washed with PBS pH 5.4. Pelletized cultures were then suspended in 10 mL of PBS pH 5.4, then the suspensions were diluted to a final concentration of 10^4 CFU/mL. Aliquots of 100 µl (corresponding to 10^3 CFU) were seeded in each well of a 96-wells plate. 3 µl of TSB at pH 5.4 were added to each well to obtain a final 1.5% TSB concentration in the culture medium. Peptides were serially diluted in PBS pH 5.4 to C = 0.257, 0.128, and 0.064 mg/mL. ZnCl2 and CuCl2 solutions were added where requested to obtain a M:L ratio 0.9:1. 100 µl of the prepared peptides ± ZnCl2/CuCl2 solutions were then added to each well, obtaining the final 0.128, 0.064 and 0.032 mg/mL peptide concentrations in a total 0.2 mL volume. PBS alone and PBS + ZnCl2/CuCl2 solutions were included as controls. The plates were incubated at 37 °C on a platform rocker with slow stirring for 3 and 24 h. At the end of the incubation times, 100 µl aliquots were taken from each sample and diluted in PBS pH 5.4 to be seeded on TSA plates. Specifically, aliquots were diluted 1:10 at 3 h, and 1:200, 1:100,000 and 1:10 at 24 h, for C. albicans, E. coli, and S. aureus respectively. After incubation for 24 h at 37 °C, grown CFUs were enumerated. Samples were assayed in triplicate in two independent experiments. Student’s t-test was used for the evaluation of significance in biological tests; a p value ≤ 0.05 was considered significant.

E. coli (ATCC 25922) = experiment: In vitro anti-E. coli CFU assay; assay type: cell-based, Escherichia coli; settings: pH 5.4; for CFU decrease/increase with respect to untreated controls / mean CFU number ± S.D.: metal salt alone, one value per peptide panel
Method: as §1

S. aureus (ATCC 25293) = experiment: In vitro anti-S. aureus CFU assay; assay type: cell-based, Staphylococcus aureus; settings: 3 h, pH 5.4; for mean CFU number ± S.D.: metal salt alone, one value per peptide panel
Method: as §1

[1] = metal salt alone, same concentration as used with 0.032 mg/mL peptide, 24 h, one value per peptide panel
[2] = metal salt alone, same concentration as used with 0.064 mg/mL peptide, 24 h, one value per peptide panel
[3] = same concentration as used with 0.032 mg/mL peptide, 3 h
[4] = same concentration as used with 0.032 mg/mL peptide, 24 h
[5] = same concentration as used with 0.064 mg/mL peptide, 3 h
[6] = same concentration as used with 0.064 mg/mL peptide, 24 h
[7] = same concentration as used with 0.128 mg/mL peptide, 3 h
[8] = same concentration as used with 0.032 mg/mL peptide
[9] = same concentration as used with 0.064 mg/mL peptide

SMILES | mean CFU number ± S.D. (C. albicans (ATCC 10231); [1]) | CFU decrease/increase with respect to untreated controls (E. coli (ATCC 25922); [3]) | mean CFU number ± S.D. (E. coli (ATCC 25922); [3]) | mean CFU number ± S.D. (E. coli (ATCC 25922); [4]) | mean CFU number ± S.D. (E. coli (ATCC 25922); [5]) | mean CFU number ± S.D. (E. coli (ATCC 25922); [6]) | CFU decrease/increase with respect to untreated controls (E. coli (ATCC 25922); [7]) | mean CFU number ± S.D. (E. coli (ATCC 25922); [7]) | mean CFU number ± S.D. (S. aureus (ATCC 25293); [8]) | mean CFU number ± S.D. (S. aureus (ATCC 25293); [9]) | also measured
[Cl][Cu][Cl] [CuCl2, reference compound] | 2,184 ± 195 CFU and 1,671 ± 25 CFU and 2,558 ± 367 CFU and 1,800 ± 195 CFU | -36% and -42% | 474 ± 91 CFU and 665 ± 96 CFU | 160 ± 42 CFU and 256 ± 3 CFU | 255 ± 23 CFU and 383 ± 82 CFU | 93 ± 28 CFU and 47 ± 28 CFU | -95% and -92% | 57 ± 4 CFU and 64 ± 24 CFU | 201 ± 25 CFU and 178 ± 2 CFU | 170 ±17 CFU and 188 ± 62 CFU | mean CFU number ± S.D. (C. albicans (ATCC 10231); [2]): 2,152 ± 228 CFU and 1,697 ± 81 CFU and 2,456 ± 236 CFU and 1,820 ± 125 CFU; mean CFU number ± S.D. (C. albicans (ATCC 10231); metal salt alone, same concentration as used with 0.128 mg/mL peptide, 24 h, one value per peptide panel): 1,816 ± 109 CFU and 2,139 ± 55 CFU and 1,360 ± 68 CFU and 1,946 ± 96 CFU; CFU number reduction by the metal salt alone, over all performed assays (E. coli (ATCC 25922); 3 h): up to 96%; CFU number reduction by the metal salt alone, over all performed assays (E. coli (ATCC 25922); 24 h): up to 96%; mean CFU number ± S.D. (S. aureus (ATCC 25293); same concentration as used with 0.128 mg/mL peptide): 201 ± 23 CFU and 159 ± 22 CFU
[Cl-].[Cl-].[Zn+2] [ZnCl2, reference compound] | 1,915 ± 234 CFU and 1,797 ± 162 CFU and 2,249 ± 145 CFU and 1,413.7 ± 348 CFU | -47% and -45% | 449 ± 74 CFU and 559 ± 25 CFU | 170 ± 14 CFU and 238 ± 16 CFU | 249 ± 11 CFU and 329 ± 11 CFU | 163 ± 47 CFU and 235 ± 6 CFU | -95% and -91% | 49 ± 8 CFU and 72 ± 21 CFU | 178 ± 60 CFU and 121 ± 11 CFU and 125 ± 60 CFU | 84 ± 13 CFU and 100 ± 11 CFU | CFU number reduction by the metal salt alone, over all performed assays (C. albicans (ATCC 10231); 3 h): up to 64.9%; CFU number reduction by the metal salt alone, over all performed assays (C. albicans (ATCC 10231); 24 h): ≤ 94%; mean CFU number ± S.D. (C. albicans (ATCC 10231); metal salt alone, same concentration as used with 0.032 mg/mL peptide, 3 h, one value per peptide panel): 94.2 ± 23 CFU and 91 ± 25 CFU and 107 ± 13 CFU; mean CFU number ± S.D. (C. albicans (ATCC 10231); metal salt alone, same concentration as used with 0.064 mg/mL peptide, 3 h, one value per peptide panel): 49 ± 2 CFU and 87 ± 6 CFU and 75.33 ± 25 CFU and 98 ± 15 CFU; CFU decrease/increase with respect to untreated controls (C. albicans (ATCC 10231); [2]): -36% and -40% and -38%; mean CFU number ± S.D. (C. albicans (ATCC 10231); metal salt alone, same concentration as used with 0.128 mg/mL peptide, 3 h, one value per peptide panel): 32 ± 9 CFU and 62 ± 6 CFU and 53 ± 14 CFU and 34.7 ± 9 CFU; CFU decrease/increase with respect to untreated controls (E. coli (ATCC 25922); [4]): -1%; CFU decrease/increase with respect to untreated controls (E. coli (ATCC 25922); [6]): -3% and -5%; mean CFU number ± S.D. (E. coli (ATCC 25922); same concentration as used with 0.128 mg/mL peptide, 24 h): 168 ± 22 CFU; CFU reduction by the metal salt alone compared to controls, over all performed assays (S. aureus (ATCC 25293)): up to 77%
